Reference: PubChem BioAssay AID248 (DTP/NCI, 2004)
Inconclusive results and toxic doses are left out.

System: L1210 leukemia ip in BDF1 mice, survival T/C
Test: NCI In Vivo Anticancer Drug Screen. Data for tumor model L1210 Leukemia (intraperitoneal) in B6D2F1 (BDF1) mice
Conditions: endpoint: mean survival time, higher = longer survival
Outline: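 In this screen, tumor-bearing mice given compound are compared to those given vehicle, and their survival values are reported as a treated-to-control quotient.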

[1] = dose: 50.0 mg/kg/injection, schedule: Q01DX009 (ip), vehicle: saline
[2] = dose: 100.0 mg/kg/injection, schedule: Q01DX009 (ip), vehicle: saline with Tween-80
[3] = dose: 200.0 mg/kg/injection, schedule: Q01DX009 (ip), vehicle: saline with Tween-80
[4] = dose: 400.0 mg/kg/injection, schedule: Q01DX009 (ip), vehicle: saline with Tween-80
[5] = dose: 100.0 mg/kg/injection, schedule: Q04DX003 (ip), vehicle: Klucel (hydroxypropylcellulose) (HPC)
[6] = dose: 200.0 mg/kg/injection, schedule: Q04DX003 (ip), vehicle: Klucel (hydroxypropylcellulose) (HPC)
[7] = dose: 400.0 mg/kg/injection, schedule: Q01DX001 (ip), vehicle: carboxymethylcellulose (CMC)
[8] = dose: 50.0 mg/kg/injection, schedule: Q01DX009 (ip), vehicle: Klucel (hydroxypropylcellulose) (HPC)
[9] = dose: 100.0 mg/kg/injection, schedule: Q01DX001 (ip), vehicle: saline
[10] = dose: 200.0 mg/kg/injection, schedule: Q01DX001 (ip), vehicle: saline

Question: Which results are given for `CCCCCCCN(CCCCCCC)C(C)C(=O)c1ccc2cc(Br)c3ccccc3c2c1` (centres undefined)?
Answer: T/C (dose: 100.0 mg/kg/injection, schedule: Q01DX001 (ip), vehicle: alcohol): 106 % of control; T/C (dose: 200.0 mg/kg/injection, schedule: Q01DX001 (ip), vehicle: alcohol): 97 % of control; T/C (dose: 400.0 mg/kg/injection, schedule: Q01DX001 (ip), vehicle: alcohol): 100 % of control

Question: `CC(C)(O)C/C=C/c1ccccc1` was tested. Which T/C (dose: 100.0 mg/kg/injection, schedule: Q04DX003 (ip), vehicle: saline with Tween-80) did it give?
Answer: The T/C was 103 % of control.

Question: And the T/C (dose: 200.0 mg/kg/injection, schedule: Q04DX003 (ip), vehicle: saline with Tween-80)?
Answer: Its T/C is 103 % of control.

Question: What about the T/C (dose: 400.0 mg/kg/injection, schedule: Q04DX003 (ip), vehicle: saline with Tween-80) of the same compound?
Answer: The T/C was 106 % of control.

Question: For `Cc1cccc(N=Cc2ccc3c(c2)OCO3)c1`, which T/C [1] is on record?
Answer: The T/C was 94 % of control.

Question: What about the T/C (dose: 100.0 mg/kg/injection, schedule: Q01DX009 (ip), vehicle: saline) of the same compound?
Answer: Its T/C is 94 % of control.

Question: What about the T/C (dose: 200.0 mg/kg/injection, schedule: Q01DX009 (ip), vehicle: saline) of the same compound?
Answer: Its T/C is 94 % of control.

Question: How did the T/C [2] turn out when `NC(=S)N/N=C/c1ccccc1N` was run?
Answer: The T/C was 102 % of control.

Question: What about the T/C [3] of the same compound?
Answer: Its T/C is 96 % of control.

Question: And the T/C [4]?
Answer: The T/C was 96 % of control.

Question: Which results are given for `CSc1ccc([N+](=O)[O-])cc1`?
Answer: T/C [5]: 104 % of control; T/C [6]: 100 % of control

Question: What does the source list for `CN(CCOS(C)(=O)=O)CCOS(C)(=O)=O`?
Answer: T/C (dose: 0.1 mg/kg/injection, schedule: Q01DX009 (ip), vehicle: saline): 123 % of control; T/C (dose: 0.17 mg/kg/injection, schedule: Q01DX009 (ip), vehicle: saline): 118 % of control; T/C (dose: 0.2 mg/kg/injection, schedule: Q01DX009 (ip), vehicle: saline): 161 % of control; T/C (dose: 0.26 mg/kg/injection, schedule: Q01DX009 (ip), vehicle: saline): 122 % of control; T/C (dose: 0.28 mg/kg/injection, schedule: Q01DX001 (ip), vehicle: saline): 110 % of control; T/C (dose: 0.4 mg/kg/injection, schedule: Q01DX001 (ip), vehicle: saline): 115 % of control; T/C (dose: 0.4 mg/kg/injection, schedule: Q01DX009 (ip), vehicle: saline): 183 % of control; T/C (dose: 0.44 mg/kg/injection, schedule: Q01DX001 (ip), vehicle: saline): 121 % of control; T/C (dose: 0.66 mg/kg/injection, schedule: Q01DX009 (ip), vehicle: saline): 101 % of control; T/C (dose: 0.8 mg/kg/injection, schedule: Q01DX009 (ip), vehicle: saline): 163 % of control; T/C (dose: 1.0 mg/kg/injection, schedule: Q01DX009 (ip), vehicle: saline): 109 % of control; T/C (dose: 1.5 mg/kg/injection, schedule: Q01DX009 (ip), vehicle: saline): 88 % of control; T/C (dose: 1.6 mg/kg/injection, schedule: Q01DX009 (ip), vehicle: saline): 92 % of control; T/C (dose: 2.25 mg/kg/injection, schedule: Q01DX001 (ip), vehicle: saline): 156 % of control; T/C (dose: 4.5 mg/kg/injection, schedule: Q01DX001 (ip), vehicle: saline): 104 % of control; T/C (dose: 38.0 micrograms/kg/injection, schedule: Q01DX009 (ip), vehicle: saline): 113 % of control; T/C (dose: 58.0 micrograms/kg/injection, schedule: Q01DX009 (ip), vehicle: saline): 123 % of control; T/C (dose: 88.0 micrograms/kg/injection, schedule: Q01DX009 (ip), vehicle: saline): 115 % of control; T/C (dose: 132.0 micrograms/kg/injection, schedule: Q01DX009 (ip), vehicle: saline): 151 % of control; T/C (dose: 200.0 micrograms/kg/injection, schedule: Q01DX009 (ip), vehicle: saline): 90 % of control

Question: How did the T/C (dose: 12.0 mg/kg/injection, schedule: Q01DX009 (ip), vehicle: saline) turn out when `CCOC(=O)c1ccc(NCC(C)(C)N(C)C)cc1` was run?
Answer: The T/C was 93 % of control.

Question: What about the T/C (dose: 12.0 mg/kg/injection, schedule: Q04DX003 (ip), vehicle: saline) of the same compound?
Answer: The T/C was 93 % of control.

Question: And the T/C (dose: 25.0 mg/kg/injection, schedule: Q01DX009 (ip), vehicle: saline)?
Answer: Its T/C is 89 % of control.

Question: What about the T/C (dose: 25.0 mg/kg/injection, schedule: Q04DX003 (ip), vehicle: saline) of the same compound?
Answer: The T/C was 98 % of control.

Question: What about the T/C [1] of the same compound?
Answer: The T/C was 90 % of control.

Question: What about the T/C (dose: 50.0 mg/kg/injection, schedule: Q04DX003 (ip), vehicle: saline) of the same compound?
Answer: The T/C was 95 % of control.

Question: For `O=C1c2ccccc2-c2cc(Br)cc(Br)c21`, which T/C (dose: 100.0 mg/kg/injection, schedule: Q01DX001 (ip), vehicle: carboxymethylcellulose (CMC)) is on record?
Answer: The T/C was 93 % of control.

Question: What about the T/C (dose: 200.0 mg/kg/injection, schedule: Q01DX001 (ip), vehicle: carboxymethylcellulose (CMC)) of the same compound?
Answer: The T/C was 98 % of control.

Question: And the T/C [7]?
Answer: Its T/C is 98 % of control.

Question: With `O=NN(CCO)C(=O)Nc1c[nH]c(=O)[nH]c1=O` as the compound, how does the T/C (dose: 12.5 mg/kg/injection, schedule: Q01DX001 (ip), vehicle: carboxymethylcellulose (CMC)) read?
Answer: The T/C was 118 % of control.

Question: What about the T/C (dose: 25.0 mg/kg/injection, schedule: Q01DX001 (ip), vehicle: carboxymethylcellulose (CMC)) of the same compound?
Answer: Its T/C is 118 % of control.

Question: And the T/C (dose: 50.0 mg/kg/injection, schedule: Q01DX001 (ip), vehicle: carboxymethylcellulose (CMC))?
Answer: Its T/C is 122 % of control.

Question: What about the T/C [7] of the same compound?
Answer: The T/C was 190 % of control.

Question: `CCOC(=O)c1cc[n+](C)c2ccccc12` was tested. Which T/C (dose: 9.37 mg/kg/injection, schedule: Q01DX009 (ip), vehicle: acetone) did it give?
Answer: Its T/C is 101 % of control.

Question: What about the T/C (dose: 18.75 mg/kg/injection, schedule: Q01DX009 (ip), vehicle: acetone) of the same compound?
Answer: The T/C was 95 % of control.

Question: What about the T/C (dose: 37.5 mg/kg/injection, schedule: Q01DX009 (ip), vehicle: acetone) of the same compound?
Answer: Its T/C is 98 % of control.

Question: And the T/C (dose: 37.5 mg/kg/injection, schedule: Q04DX003 (ip), vehicle: acetone)?
Answer: Its T/C is 92 % of control.

Question: And the T/C (dose: 75.0 mg/kg/injection, schedule: Q04DX003 (ip), vehicle: acetone)?
Answer: The T/C was 89 % of control.

Question: What about the T/C (dose: 150.0 mg/kg/injection, schedule: Q01DX001 (ip), vehicle: acetone) of the same compound?
Answer: The T/C was 89 % of control.

Question: With `COc1ccc([N+](=O)[O-])cc1NC(=O)Nc1ccc(N(C)C(C)=O)cc1` as the compound, how does the T/C [8] read?
Answer: The T/C was 105 % of control.

Question: And the T/C (dose: 100.0 mg/kg/injection, schedule: Q01DX009 (ip), vehicle: Klucel (hydroxypropylcellulose) (HPC))?
Answer: Its T/C is 111 % of control.

Question: And the T/C (dose: 200.0 mg/kg/injection, schedule: Q01DX009 (ip), vehicle: Klucel (hydroxypropylcellulose) (HPC))?
Answer: The T/C was 101 % of control.

Question: Which T/C [9] does the source give for `CCOC(=O)C(C#N)=C1CCN(Cc2ccccc2)CC1` here?
Answer: Its T/C is 96 % of control.

Question: And the T/C [10]?
Answer: The T/C was 99 % of control.

Question: What about the T/C (dose: 400.0 mg/kg/injection, schedule: Q01DX001 (ip), vehicle: saline) of the same compound?
Answer: The T/C was 105 % of control.

Question: For `O=C1C(O)=C(c2ccccc2)C(=O)C(O)=C1c1ccccc1`, which T/C (dose: 25.0 mg/kg/injection, schedule: Q01DX001 (ip), vehicle: saline) is on record?
Answer: Its T/C is 95 % of control.

Question: And the T/C (dose: 25.0 mg/kg/injection, schedule: Q01DX009 (ip), vehicle: Klucel (hydroxypropylcellulose) (HPC))?
Answer: The T/C was 100 % of control.

Question: What about the T/C (dose: 50.0 mg/kg/injection, schedule: Q01DX001 (ip), vehicle: saline) of the same compound?
Answer: Its T/C is 104 % of control.

Question: What about the T/C [8] of the same compound?
Answer: The T/C was 105 % of control.

Question: And the T/C (dose: 50.0 mg/kg/injection, schedule: Q04DX002 (ip), vehicle: Klucel (hydroxypropylcellulose) (HPC))?
Answer: The T/C was 98 % of control.

Question: What about the T/C [9] of the same compound?
Answer: Its T/C is 96 % of control.

Question: What about the T/C (dose: 100.0 mg/kg/injection, schedule: Q04DX002 (ip), vehicle: Klucel (hydroxypropylcellulose) (HPC)) of the same compound?
Answer: Its T/C is 120 % of control.

Question: What about the T/C [10] of the same compound?
Answer: The T/C was 104 % of control.

Question: What about the T/C (dose: 200.0 mg/kg/injection, schedule: Q04DX002 (ip), vehicle: Klucel (hydroxypropylcellulose) (HPC)) of the same compound?
Answer: Its T/C is 91 % of control.

Question: For `CC1C(=O)OC2C1CCC1(C)C3(C)C(=O)C=CC213` (centres undefined), which T/C (dose: 75.0 mg/kg/injection, schedule: Q01DX001 (ip), vehicle: saline) is on record?
Answer: The T/C was 97 % of control.

Question: And the T/C (dose: 150.0 mg/kg/injection, schedule: Q01DX001 (ip), vehicle: saline)?
Answer: Its T/C is 106 % of control.

Question: And the T/C (dose: 300.0 mg/kg/injection, schedule: Q01DX001 (ip), vehicle: saline)?
Answer: The T/C was 95 % of control.

Question: For `O=[N+]([O-])c1ccc(S(=O)(=O)Oc2ccccc2)cc1`, which T/C (dose: 50.0 mg/kg/injection, schedule: Q01DX009 (ip), vehicle: saline sonified) is on record?
Answer: Its T/C is 93 % of control.

Question: And the T/C (dose: 100.0 mg/kg/injection, schedule: Q01DX009 (ip), vehicle: saline sonified)?
Answer: Its T/C is 103 % of control.

Question: What about the T/C [5] of the same compound?
Answer: The T/C was 98 % of control.

Question: And the T/C (dose: 200.0 mg/kg/injection, schedule: Q01DX009 (ip), vehicle: saline sonified)?
Answer: Its T/C is 92 % of control.

Question: And the T/C [6]?
Answer: The T/C was 91 % of control.

Question: Which results are given for `CSc1ncc(Br)c(C(=O)O)n1`?
Answer: T/C [2]: 93 % of control; T/C [3]: 93 % of control; T/C [4]: 94 % of control
